Source: patent US20250059604A1, “BIOMARKERS AND METHODS RELATED TO FRAGILE X SYNDROME” (University of Massachusetts, priority 2021, published 2025)
Where “and” joins values, the source holds several entries; their conditions need not be identical. Equal values may be shown once. Read-outs that look alike come from different tables or passages of the source.

What was measured:
[1] = system: FMR1 transcripts (total, FMR1-205, FMR1-217) in FXS-NSC; conditions: FXS iPSC-derived NSCs, re-analyzed from RNA-seq data of Vershkov et al., cited from earlier work
[2] = system: FMRP; experiment: 5-AzadC treatment of FXS lymphoblast cell lines, western blot of FMRP relative to GAPDH; assay type: cell-based, human; conditions: FXS1 and FXS2 LCLs, 5-AzadC vs DMSO
Procedure: For each cell culture, 30×10^5 cells/ml were added to a final volume of 20 ml media (RPMI1640 medium (Sigma-Aldrich) supplemented with 15% fetal bovine serum (FBS) and 2.5% L-glutamine at 37° C. with 5% C02) per T25 flask. 5-Aza-2′-deoxycytidine (5-AzadC) (Sigma-Aldrich, A3656) was added to the cell cultures (final concentration 1 μM) for 7 consecutive days. A 2 mM stock of 5-AzadC was made in DMSO. For each cell line, two independent treatments were performed (n=2). For the no treatment controls for each cell line, DMSO was added to the flasks. […]
Cells were homogenized at 4° C. in RIPA buffer, with incubation on ice for 10 minutes and dissociation by pipetting. […] Protein concentration was determined using BCA reagent. Proteins ([…]) were diluted in SDS-bromophenol blue reducing buffer with 40 mM DTT and analyzed using western blotting with the following antibodies: FMRP (Millipore, mAb2160, 1:1,000), FMRP (Abcam, ab17722, 1:1,000) and GAPDH (14C10, Cell Signaling Technology, mAb 2118, 1:2,000), diluted in 1× TBST with 5% non-fat milk. […]
DNA methylation of the CpG island upstream of the FMR1 gene promoter in FXS individuals (MFM, Methylated full mutation) contributes to transcriptional silencing of the locus and loss of FMRP. […] Next, FXS1 and FXS2 cell lines were treated with the 5-AzadC and then measured FMR1 RNA and FMRP levels. […]

[3] = system: FMR1 RNA (full-length FMR1 and FMR1-217) in FXS1 and FXS2 LCLs; experiment: 5-AzadC treatment of FXS lymphoblast cell lines, RT-qPCR of full-length FMR1 and FMR1-217 RNA relative to GAPDH; assay type: cell-based, human; conditions: 1 μM, seven days, RT-qPCR normalized to GAPDH
Procedure: One μg of total RNA was primed with oligo(dT)20 to generate cDNA with a QuantiTect cDNA synthesis kit (Qiagen, #205311) using random hexamers. qPCR was performed using the iTaq™ Universal SYBR® Green Supermix (BIO-RAD #1725122) on a QuantStudio 3 qPCR machine in duplicate.
Lymphoblast cell lines (LCL) were obtained from Coriell Institute from two FXS individuals (GM07365 (FXS1), GM06897 (FXS2)) and two typically developing control males (GM07174 (WT3), GM06890 (WT4)). Cells were cultured in RPMI 1640 medium (Sigma-Aldrich), supplemented with 15% fetal bovine serum (FBS) and 2.5% L-glutamine at 37° C. with 5% CO2 in T25 flasks.
For each cell culture, 30×10^5 cells/ml were added to a final volume of 20 ml media (RPMI1640 medium (Sigma-Aldrich) supplemented with 15% fetal bovine serum (FBS) and 2.5% L-glutamine at 37° C. with 5% C02) per T25 flask. 5-Aza-2′-deoxycytidine (5-AzadC) (Sigma-Aldrich, A3656) was added to the cell cultures (final concentration 1 μM) for 7 consecutive days. A 2 mM stock of 5-AzadC was made in DMSO. For each cell line, two independent treatments were performed (n=2). For the no treatment controls for each cell line, DMSO was added to the flasks. For samples with both 5-AzadC and ASO treatment, 80 nM or 160 nM ASOs or vehicle were added on Day 1 and either 5-AzadC or DMSO was added each day from Day 2 up to Day 9 at a final concentration of 1 μM. On Day 9 the cells were collected in 1× phosphate buffered saline to proceed with RNA extraction or Western blotting.
DNA methylation of the CpG island upstream of the FMR1 gene promoter in FXS individuals (MFM, Methylated full mutation) contributes to transcriptional silencing of the locus and loss of FMRP. FMR1 transcription can be reactivated by treatment with the nucleoside analogue 5-AzadC (5-aza-2′-deoxycytidine), which inhibits DNA methylation (Tabolacci et al., 2016b, 2016a). […] Next, FXS1 and FXS2 cell lines were treated with the 5-AzadC and then measured FMR1 RNA and FMRP levels. […]

[4] = FXS1 LCL (GM07365, fully methylated)

Nc1ncn([C@H]2C[C@H](O)[C@@H](CO)O2)c(=O)n1 [5-AzadC, 5-Aza-2′-deoxycytidine]
FMR1 (Total) reads ([1]; biologic duplicates): 9.9 TPM and 6.1 TPM
FMR1-217 reads ([1]; biologic duplicates): 6.9 TPM and 3.9 TPM
FMR1-217 expression (RNA-seq reads), in words [1]: strong FMR1-217 expression was observed only in the 5-AzadC-treated cells
total FMR1 and FMR1-205 expression (RNA-seq reads), in words [1]: strong total FMR1 and FMR1-205 expression
FMR1-217 expression (RNA-seq reads), in words ([1]; listed as 5-azadC): FMR1-217 reads are detected only in the 5-azadC-treated samples
FMRP level (FMRP/GAPDH, western blot) [2]: In neither cell line did 5-AzadC treatment induce an increase in FMRP
FMR1-217 RNA relative to DMSO-treated cells [3, 4]: significant increases
full-length FMR1 RNA relative to DMSO-treated cells [3, 4]: significant increases
full-length FMR1 and FMR1-217 RNA relative to DMSO-treated cells ([3]; FXS2 LCL (GM06897, partially methylated)): increase of only full-length FMR1 RNA
